Experimental data reported in patent publication US11224565B2, “N-acyldipeptide derivatives and their uses” (NeoStrata Company, Inc., priority 2011, dated 2022).
Peptide text beside a SMILES is read from it.

Assays:
[1] = system: MB231 breast cancer cells; experiment: In vitro screen for anti-tumor effects: proliferation of MB231 cells (MTS); assay type: cell-based; conditions: 20 μg/ml, end of 3 days of incubation, MTS absorbance at 490 nm vs water control
Description: A typical in vitro screen for anti-tumor or anti-cancer effects was carried out as follows.
An aliquot of 2,000 MB231 breast cancer cells (breast carcinoma cells) in 100 μl DMEM complete media (Sigma Chemical Co.) was plated in a 96 well plate containing at a concentration of 20 μg/ml a test substance or control water. To measure proliferation of the cancer cells, an aliquot of 20 μl of MTS reagent (Promega Co.) was added to each well and the cells were incubated at […] for a total of three days. The cells rapidly metabolized MTS reagent and the metabolized MTS reagent was measured at 490 nm at the end of days 1, 2 and 3. The reading was proportional to the number of cancer cells. The decrease in absorbance at each time point indicated fewer cancer cells. At the end of day 3, the decrease in absorbance with respect to the control indicated the inhibition by the test substance.

[2] = system: interleukin-6 (IL-6) in THP-1 leukemia cells; experiment: In vitro screen for anti-inflammatory effects: angiocidin-induced IL-6 in THP-1 cells (ELISA); assay type: cell-based, human; conditions: 100 μg/ml for 24 hours, then angiocidin 10 μg/ml for 24 hours
Description: A typical in vitro screen for anti-inflammatory effects was carried out as follows.
THP-1 leukemia cells (monocytic leukemic human cell line) were cultured and either untreated or treated with a bioactive dipeptide derivative (100 μg/ml) of the present invention for 24 hours. The untreated or treated leukemia cells were then treated with angiocidin (10 μg/ml) for 24 hours to induce interleukin-6 (IL-6) which was an indicator of the inflammation. The induced IL-6 was measured quantitatively by ELISA (enzyme-linked immunosorbent assay). […] Therefore, the bioactive dipeptide derivatives of the present invention, such as N—Ac-L-Val-L-Ala-NH2, have the potential use as nonsteroidal anti-inflammatory substances.

[3] = system: osteoarthritis of both knees; experiment: Intra-articular injections in knee osteoarthritis; assay type: in vivo, human
Description: Bioactive dipeptide derivative of the present invention as potential treatment of knee osteoarthritis by intra-articular injections.
A subject had severe osteoarthritis of both knees for four and half years. Prior therapy had included intra-articular injections of corticosteroids and hyaluronic acid as well as celecoxib (Celebrex) orally (200 mg) twice daily. Such therapy had provided only mild transitory relief of knee pain and edema, and edema of lower legs.
Intra-articular injections of 0.2% (w/v) N—Ac-L-Val-L-Ala-NH2 in water, 1 ml (2 mg) as prepared in Example 22 were administered to each knee. The pains in both knees disappeared 10-15 minutes after the injections, and the relief of pains lasted for 24 hours. Edema and inflammation of the knees and lower legs had diminished for approximately the same 24 hour period. Repeat injections of the same composition were administered once a week for five weeks to provide continued relief of pain, edema and inflammation.
In another trial, intra-articular injections of 0.2% (w/v) N—Ac-L-Val-L-Ala-NH2 with 1% (w/v) methyl cellulose in water, 0.4 ml (0.8 mg) as prepared in Example 22 were also administered to each knee at different times. The pains in both knees disappeared 10-15 minutes after the injections, and the relief of pains lasted for 24 hours. Edema and inflammation of the knees and lower legs had diminished for approximately the same 24 hour period.
In yet another embodiment, the volunteer subject injected intra-articularly into a knee joint a test composition containing a bioactive dipeptide derivative of the present invention to improve and reduce arthritic inflammation and pain of the joint.

muscle strength = experiment: Pushup performance after topical application to upper chest; assay type: in vivo, human; conditions: 0.5% (w/v) in WEP442 pH 6.9 on upper chest about 30 minutes before exercise; routinely about 100
Description: A subject, performed pushups routinely with a maximal number of about 100 in one hour. The subject topically applied 0.5% (w/v) N—Ac-L-Tyr-L-Tyr-NH2 in WEP442, pH 6.9 solution as prepared in Example 5 to ease the tight muscles on the upper chest about 30 minutes before the exercise. The subject was surprised to find that after the topical application they could now perform pushups with a maximal number of about 200 in one hour without feeling tired. The subject repeated the performance next day with the same enhanced result. To make sure that the enhanced effect on the muscles was not due to the vehicle solution, in the following day the subject topically applied WEP442 solution to the same upper chest about 30 minutes before the exercise. This time the subject could not perform the same number of pushups as before.

varicose veins = experiment: Topical treatment of varicose veins; assay type: in vivo, human; conditions: 0.5% (w/v) in WEP442 topically twice daily, right lower leg, end of four weeks
Description: A subject had multiple varicose veins in their right lower leg for many years resistant to any kind of topical treatments including high potency alpha-hydroxyacids. The lesions of varicose veins covered an area of skin measuring 5 cm×10 cm and appeared more prominent with advancing age. The subject topically applied twice daily 0.5% (w/v) N—Ac-L-Tyr-L-Tyr-NH2 in WEP442 solution as prepared in Example 5. […] It is believed that continued topical application will eradicate the varicose veins.

sweating of underarm = experiment: Topical application to underarm, perspiration; assay type: in vivo, human; conditions: 0.5% (w/v) in WEP442 pH 6.7 after shower
Description: A subject, routinely took a shower every morning, then topically applied a conventional antiperspirant product on the underarm skin to prevent perspiration. To test the efficacy of the N-acyldipeptide derivative of the present invention, the subject after the shower, topically applied 0.5% (w/v) N—Ac-L-Tyr-L-Tyr-NH2 in WEP442, pH 6.7 (Example 5) on the left underarm and a control vehicle WEP442 on the right underarm. After two hours, there was profuse sweating in the right underarm as evidenced by the wet shirt in the armpit area. In contrast, there was no sweating in the left underarm as shown by the dry shirt in the armpit area. The left underarm was dry for the next 6-8 hours.

[4] = system: near-sightedness (myopia); experiment: Topical application around the eyes, eye vision (myopia); assay type: in vivo, human; conditions: person
Description: Typical examples of improving eye vision are described as follows.
Each time their vision in both eyes got worse, and they required changes in contact lenses in past years. This time, 6 weeks before their checkup, the subject topically applied twice daily 0.5% (w/v) N—Ac-L-Tyr-L-Tyr-NH2 in WEP442, pH 6.7 (Example 5) on the skin around and outside of eye areas and periorbital regions for 6 weeks.
Each time their vision in both eyes worsened, and they required changes in the prescription for their contact lenses in the past years. This time, one month before their checkup, the subject topically applied once daily 0.5% (w/v) N—Ac-L-Tyr-L-Tyr-NH2 in WEP442, pH 6.7 (Example 5) on the skin around and outside of eye areas and periorbital regions for 4 weeks.

[5] = 0.2% (w/v) in water, 1 ml (2 mg) intra-articular per knee
[6] = 0.2% (w/v) with 1% (w/v) methyl cellulose in water, 0.4 ml (0.8 mg) intra-articular per knee

Compound	inhibition of the growth of breast cancer cells [1]	inhibition of the production of IL-6 [2]	duration of relief of pains [3, 5] [h]	period of diminished edema and inflammation of knees and lower legs [3, 5] [h]	time after injection until pains in both knees disappeared [3, 5] [min]	duration of relief of pains [3, 6] [h]	period of diminished edema and inflammation of knees and lower legs [3, 6] [h]	time after injection until pains in both knees disappeared [3, 6] [min]	maximal number of pushups in one hour (muscle strength)	appearance of varicose vein lesions (varicose veins)	time the treated underarm stayed dry (sweating of underarm) [h]	sweating of treated left underarm (sweating of underarm; after two hours, vehicle underarm profuse sweating)	vision in both eyes at yearly checkup ([4]; 0.5% (w/v) in WEP442 pH 6.7 once daily on skin around eyes for 4 weeks)	vision in both eyes at yearly checkup ([4]; 0.5% (w/v) in WEP442 pH 6.7 twice daily on skin around eyes for 6 weeks)
CC(=O)N[C@H](C(=O)N[C@@H](C)C(N)=O)C(C)C [N-Ac-L-Val-L-Ala-NH2] (Ac-Val-Ala-NH2)	approximately 12%	approximately 70%	24	~24	10 to 15	24	~24	10 to 15						
CC(=O)N[C@@H](Cc1ccc(O)cc1)C(=O)N[C@@H](Cc1ccc(O)cc1)C(N)=O [N-Ac-L-Tyr-L-Tyr-NH2] (Ac-Tyr-Tyr-NH2)									about 200	appeared less prominent	6 to 8	no sweating	did not worsen	did not worsen
